# Source: ChEMBL document CHEMBL1201862, “PubChem BioAssay data set” (2004)
#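 48-hour exposure; five concentrations; linearly interpolated endpoints. GI50: concentration for 50% inhibition of growth.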 Activity calls are given as the source filed them. No stated cut-off is given here; in the data, active = GI50 up to about 1.1 µM and inactive = higher.
# Tests used:
# Experiment in all cases: DTP human tumour cell line panel, 48 h
# U-251 = system: U-251
# EKVX = system: EKVX
# LXFL 529 = system: LXFL 529
# HCT-15 = system: HCT-15
# DMS-273 = system: DMS-273
# RXF 393 = system: RXF 393
# OVCAR-5 = system: OVCAR-5
# LOX IMVI = system: LOX IMVI
# UACC-62 = system: UACC-62
# SNB-19 = system: SNB-19
# SK-MEL-2 = system: SK-MEL-2
# A549 = system: A549
# SK-MEL-5 = system: SK-MEL-5
# DLD-1 = system: DLD-1
# OVCAR-4 = system: OVCAR-4
# K562 = system: K562
# M14 = system: M14
# NCI-H226 = system: NCI-H226
# HCT-116 = system: HCT-116
# MOLT-4 = system: MOLT-4
# TK-10 = system: TK-10
# HOP-62 = system: HOP-62
# SK-MEL-28 = system: SK-MEL-28
# HT-29 = system: HT-29
# RPMI-8226 = system: RPMI-8226
# NCI-H460 = system: NCI-H460
# SNB-75 = system: SNB-75
# SF-268 = system: SF-268
# UO-31 = system: UO-31
# HL-60 = system: HL-60
# CCRF-CEM = system: CCRF-CEM
# RXF 631 = system: RXF 631
# SF-295 = system: SF-295
# DMS-114 = system: DMS-114
# SF-539 = system: SF-539
# NCI-H23 = system: NCI-H23
# OVCAR-8 = system: OVCAR-8
# SK-OV-3 = system: SK-OV-3
# COLO 205 = system: COLO 205
# KM12 = system: KM12
# M19-MEL = system: M19-MEL
# KM-20L2 = system: KM-20L2
# 786-0 = system: 786-0
# IGROV-1 = system: IGROV-1
# OVCAR-3 = system: OVCAR-3
# HOP-18 = system: HOP-18
# SNB-78 = system: SNB-78
# HOP-92 = system: HOP-92
# A498 = system: A498
# XF498 = system: XF498
# ACHN = system: ACHN
# CAKI-1 = system: CAKI-1
# SR = system: SR
# SN12C = system: SN12C
# HCC 2998 = system: HCC 2998
# UACC-257 = system: UACC-257
# Malme-3M = system: Malme-3M
# SW-620 = system: SW-620
# NCI-H522 = system: NCI-H522
smiles,measurement,setting,value
CC1(C(=O)O)CCC[C@@]2(C)C1CC[C@@]1(C)c3cocc3CCC21 (some centres not stated),GI50,U-251,97.7 µM (inactive)
same,GI50,EKVX,> 100 µM (inactive)
same,GI50,LXFL 529,> 100 µM (inactive)
same,GI50,HCT-15,> 100 µM
same,GI50,DMS-273,> 100 µM (inactive)
same,GI50,RXF 393,> 100 µM (inactive)
same,GI50,OVCAR-5,> 100 µM (inactive)
same,GI50,LOX IMVI,> 100 µM (inactive)
same,GI50,UACC-62,> 100 µM (inactive)
same,GI50,SNB-19,> 100 µM (inactive)
same,GI50,SK-MEL-2,> 100 µM (inactive)
same,GI50,A549,70.8 µM (inactive)
same,GI50,SK-MEL-5,> 100 µM (inactive)
same,GI50,DLD-1,> 100 µM (inactive)
same,GI50,OVCAR-4,> 100 µM (inactive)
same,GI50,K562,40.9 µM (inactive)
same,GI50,M14,> 100 µM (inactive)
same,GI50,NCI-H226,> 100 µM (inactive)
same,GI50,HCT-116,72.8 µM (inactive)
same,GI50,MOLT-4,> 100 µM (inactive)
same,GI50,TK-10,> 100 µM (inactive)
same,GI50,HOP-62,> 100 µM (inactive)
same,GI50,SK-MEL-28,> 100 µM (inactive)
same,GI50,HT-29,> 100 µM (inactive)
same,GI50,RPMI-8226,> 100 µM (inactive)
same,GI50,NCI-H460,> 100 µM (inactive)
same,GI50,SNB-75,> 100 µM (inactive)
same,GI50,SF-268,> 100 µM (inactive)
same,GI50,UO-31,> 100 µM (inactive)
same,GI50,HL-60,> 100 µM (inactive)
same,GI50,CCRF-CEM,> 100 µM (inactive)
same,GI50,RXF 631,> 100 µM (inactive)
same,GI50,SF-295,> 100 µM (inactive)
same,GI50,DMS-114,> 100 µM (inactive)
same,GI50,SF-539,> 100 µM (inactive)
same,GI50,NCI-H23,> 100 µM (inactive)
same,GI50,OVCAR-8,> 100 µM (inactive)
same,GI50,SK-OV-3,> 100 µM (inactive)
same,GI50,COLO 205,> 100 µM (inactive)
same,GI50,KM12,> 100 µM (inactive)
same,GI50,M19-MEL,> 100 µM (inactive)
same,GI50,KM-20L2,> 100 µM (inactive)
same,GI50,786-0,83.6 µM (inactive)
same,GI50,IGROV-1,> 100 µM (inactive)
same,GI50,OVCAR-3,> 100 µM (inactive)
same,GI50,HOP-18,> 100 µM (inactive)
same,GI50,SNB-78,> 100 µM (inactive)
same,GI50,HOP-92,> 100 µM (inactive)
same,GI50,A498,> 100 µM (inactive)
same,GI50,XF498,> 100 µM (inactive)
same,GI50,ACHN,> 100 µM (inactive)
same,GI50,CAKI-1,> 100 µM (inactive)
same,GI50,SR,> 100 µM (inactive)
same,GI50,SN12C,> 100 µM (inactive)
same,GI50,HCC 2998,> 100 µM (inactive)
same,GI50,UACC-257,> 100 µM (inactive)
same,GI50,Malme-3M,> 100 µM (inactive)
same,GI50,SW-620,> 100 µM (inactive)
CCCCCCCCCCCCCC(=O)OCC1OC(OC)C(NC(=O)N(CCCl)N=O)C(O)C1O (configuration not stated),GI50,U-251,12.6 µM (inactive)
same,GI50,LXFL 529,16.3 µM (inactive)
same,GI50,HCT-15,34.8 µM
same,GI50,DMS-273,12.9 µM (inactive)
same,GI50,RXF 393,16.4 µM (inactive)
same,GI50,OVCAR-5,25.6 µM (inactive)
same,GI50,LOX IMVI,10.1 µM (inactive)
same,GI50,UACC-62,1.97 µM (inactive)
same,GI50,SNB-19,18.5 µM (inactive)
same,GI50,SK-MEL-2,38.1 µM (inactive)
same,GI50,A549,15.6 µM (inactive)
same,GI50,SK-MEL-5,16.2 µM (inactive)
same,GI50,DLD-1,20.8 µM (inactive)
same,GI50,OVCAR-4,20.6 µM (inactive)
same,GI50,K562,12.5 µM (inactive)
same,GI50,M14,17.2 µM (inactive)
same,GI50,NCI-H226,24.8 µM (inactive)
same,GI50,HCT-116,14.3 µM (inactive)
same,GI50,MOLT-4,2.06 µM (inactive)
same,GI50,TK-10,37.9 µM (inactive)
same,GI50,HOP-62,17.2 µM (inactive)
same,GI50,SK-MEL-28,25.3 µM (inactive)
same,GI50,HT-29,19.9 µM (inactive)
same,GI50,RPMI-8226,11.4 µM (inactive)
same,GI50,NCI-H460,4.93 µM (inactive)
same,GI50,SNB-75,8.89 µM (inactive)
same,GI50,SF-268,7.96 µM (inactive)
same,GI50,UO-31,22.6 µM (inactive)
same,GI50,CCRF-CEM,10.3 µM (inactive)
same,GI50,RXF 631,20.9 µM (inactive)
same,GI50,SF-295,7.43 µM (inactive)
same,GI50,DMS-114,18.5 µM (inactive)
same,GI50,SF-539,3.56 µM (inactive)
same,GI50,NCI-H23,12.9 µM (inactive)
same,GI50,OVCAR-8,21.8 µM (inactive)
same,GI50,COLO 205,21.9 µM (inactive)
same,GI50,KM12,24.4 µM (inactive)
same,GI50,KM-20L2,21 µM (inactive)
same,GI50,786-0,2.59 µM (inactive)
same,GI50,IGROV-1,29.6 µM (inactive)
same,GI50,OVCAR-3,24.9 µM (inactive)
same,GI50,HOP-18,> 100 µM (inactive)
same,GI50,SNB-78,25.5 µM (inactive)
same,GI50,NCI-H522,> 10 µM (inactive)
same,GI50,A498,27.1 µM (inactive)
same,GI50,XF498,15.9 µM (inactive)
same,GI50,ACHN,10.5 µM (inactive)
same,GI50,CAKI-1,> 100 µM (inactive)
same,GI50,SR,3.71 µM (inactive)
same,GI50,SN12C,25.5 µM (inactive)
same,GI50,HCC 2998,28.1 µM (inactive)
same,GI50,UACC-257,14.2 µM (inactive)
same,GI50,Malme-3M,27 µM (inactive)
same,GI50,SW-620,8.79 µM (inactive)
